Measured values reported in patent publication US6869929B2, “Use of transcription factors for treating inflammation and other diseases” (Beth Israel Deaconess Medical Center, priority 2000, dated 2005).

Assays:
Format in all cases: cell-based, human
[1] = tested on: ESE-1; assay: ESE-1 mRNA time course in C-28/I2 chondrocytes; settings: 10 μg/ml, absence or presence of IL-1β, up through 8 h
Method: The immortalized human chondrocyte cell lines T/C-28a2 and C-28/I2 (Goldring M B, et al., J Clin Invest 1994;94:2307-16) were cultured in Dulbecco's modified Eagle's medium (DMEM)/Ham's F12 (1/1, v/v; Life Technologies) containing 10% fetal calf serum (FCS; Biowhitaker) and passaged using trypsin-EDTA solution (Life Technologies) at >95% confluency every 5 to 6 days. The temperature-sensitive tsT/AC62 cells (Robbins J R, et al., Arthritis Rheum 2000;43:2189-201) were grown in DMEM/Ham's F12 (1/1, v/v) supplemented with 10% FCS, 10 IU/ml penicillin, 100 μg/ml streptomycin and maintained at 32° C. in 5% CO2 and the culture medium was changed every 3 to 4 days. The cells were grown to confluence and passaged by treatment with trypsin/EDTA as described previously (Robbins J R, et al., Arthritis Rheum 2000;43:2189-201). Suspensions of tsT/AC62 were embedded in alginate and cultured for X days. […]
We first examined the time course of ESE-1 expression at the mRNA level in the C-28/I2 human chondrocyte cell line after treatment with IL-1β for periods of time between 0.5 and 24 h (FIG. 17). In IL-1β-treated quiescent cultures, ESE-1 mRNA was detected at 30 min, increased to peak levels within 4 h, and declined gradually thereafter. […]

[2] = tested on: ESE-1; assay: ESE-1 mRNA Northern blot in LB-12 osteoblasts; settings: LB-12 cells
Method: U-87 Mg and U-138 Mg (human glioma), THP-1 (human monocytic), RAW 264.7 (murine monocytic), LB-12 (human osteoblast-like large T antigen transformed bone marrow stromal cells), and human chondrocytes were grown and treated with cytokines as described (Apperley, J., et al. 1990. J Bone Mineral Res. 5:S93; Goldring, M. B., et al. 1994. J Clin Invest 94:2307-16; Goldring, S. R., et al. 1983. J Bone Joint Surg 65:575-84; Libermann, T. A., et al. 1987. Embo J. 6:1627-1632).
Total RNA was harvested using QIAshreder (Qiagen) and RNeasy® Mini Kit (Quiagen) or Trizol (Gibco BRL). Poly A^+ RNA was prepared with MicroPoly(A) Pure (Ambion). Northern blots (5 μg total RNA) were hybridized using a full length ESE-1 cDNA probe as described (Oettgen, P., et al. et al. 1997, Mol Cell Biol 17:4419-33.).
Osteoblasts, the bone cells responsible for bone formation, represent another connective tissue cell target of inflammatory cytokines in joint disorders (Bogoch, E. R., and E. Moran. 1998, Can J Surg 41:264-71). […] LB-12 cells were incubated for different times in the absence or presence of IL-1β. […] Since the rapid, but transient induction of ESE-1 resembles that of immediate early genes, we tested the effect of the protein synthesis inhibitor cycloheximide which superinduces expression of certain genes due to mRNA stabilization. Cycloheximide alone had no effect, but superinduced IL-1β-mediated ESE-1 mRNA expression (FIG. 11d).

[3] = tested on: COL2A1; assay: COL2A1 mRNA time course in C-28/I2 chondrocytes; settings: earlier time points

C[C@@H]1C[C@@H]([C@H](O)CC2CC(=O)NC(=O)C2)C(=O)[C@@H](C)C1 [Cycloheximide, cycloheximide]
ESE-1 mRNA levels in presence of agent [1]: stabilized the levels of ESE-1 mRNA and augmented control and IL-1β-stimulated expression
IL-1β-mediated ESE-1 mRNA expression in presence of agent [2]: superinduced
ESE-1 mRNA expression, agent alone ([2]; 1, 2, 6, 24 hours): had no effect
IL-1β inhibition of COL2A1 mRNA in presence of agent [3]: appeared to abolish this inhibition
